Measurements taken from patent US20140186329A1, “POLYPHENOL ANALOGS TO TREAT ISCHEMIA” (priority 2011, published 2014).
pEC50: −log10 of the molar value. Like-named read-outs stand apart in the source and are kept apart here.

How the values were obtained:
HT22 cells [1] = test: In vitro ischemia assay (HT22 cell IAA assay, MTT); type: cell-based, mouse; conditions: for Emax: HT-22, HT22 Cell IAA assay, read-out: Max Protection
Method: Cell viability was determined by a modified version of 3-(4,5-dimethylthiazol-2-yl)-2,5-diphenyl tetrazolium bromide (MTT) assay based on the standard procedure (Maher, et al., Brain Research. (2007), supra). Cells were seeded onto 96-well microtiter plates at a density of 5×10^3 cells per well. For the in vitro ischemia assay, the next day, the medium was replaced with DMEM supplemented with 7.5% DFCS and the cells were treated with 20 μM iodoacetic acid (IAA) alone or in the presence of the different derivatives. After 2 hr the medium in each well was aspirated and replaced with fresh medium without IAA but containing the derivatives. 20 hr later, the medium in each well was aspirated and replaced with fresh medium containing 2.5 μg/ml MTT. After 4 hr of incubation at 37° C., the cells were solubilized with 100 μl of a solution containing 50% dimethylformamide and 20% SDS (pH 4.7). The absorbance at 570 nm was measured on the following day with a microplate reader (Molecular Devices). Results were confirmed by visual inspection of the wells. Controls included compound alone to test for toxicity and compound with no cells to test for interference with the assay chemistry.
For a primary screen, an in vitro ischemia model in combination with the HT22 nerve cell line (Maher, et al., Brain Research. (2007) 1173, 117-125) was chosen. […] To induce ischemia in the HT22 cells we used iodoacetic acid (IAA), a well-known, irreversible inhibitor of the glycolytic enzyme glyceraldehyde 3-phosphate dehydrogenase (G3PDH) (Winkler, et al., Exp. Eye Res. (2003) 76, 715-723). IAA has been used in a number of other studies to induce ischemia in nerve cells (Reshef, et al., Neurosci. Lett. (1997) 238, 37-40; Sperling, et al., Neursci. Lett. (2003) 351, 137-140; Rego, et al., Neurochem. Res. (1999) 24, 351-358; Sigalov, et al., J. Mol. Neurosci. (2000) 15, 147-154; and Reiner, et al., Neurosci. Lett. (1990) 119, 175-178), including several recent screens for neuroprotective molecules (Biraboneye, et al., J. Med. Chem. (2009) 52 (14), 4358-4369; Biraboneye, et al., Chem. Med. Chem. (2010) 5 (1), 79-85). The changes following IAA treatment of neural cells are very similar to those seen in animal models of ischemic stroke (Lipton, et al., Physiol. Rev. (1999) 79, 1431-1568) and include alterations in membrane potential (Reiner, et al., Neurosci. Lett. (1990) 119, 175-178), breakdown of phospholipids (Taylor, et al., J. Pharmacol. Exp. Ther. (1996) 276, 1224-1231), loss of ATP (Winkler, et al., Exp. Eye Res. (2003) 76, 715-723; Sperling, et al., Neursci. Lett. (2003) 351, 137-140) and an increase in reactive oxygen species (ROS) (Taylor, et al., J. Pharmacol. Exp. Ther. (1996), supra; and Sperling, et al., Neursci. Lett. (2003) 351, 137-140).
(§1) Cell viability was determined after 24 hr by the MTT assay. The ability to maintain GSH (GSH) was determined by treating HT22 cells with different doses of each derivative (1-10 μM) in the presence of 5 mM glutamate. After 24 hr cell extracts were prepared and analyzed for total GSH. Fisetin (10 μM) was used as a positive control. The ability to induce PC12 cell differentiation (PC 12 diff' n) was determined by treating PC12 cells in N2 medium with different doses of each derivative (1-10 μM) for 24 hr. Differentiation was assessed by visual inspection with Fisetin (10 μM) as a positive control. Anti-inflammatory activity (microglia) was assessed in N9 microglial cells treated with bacterial lipopolysaccharide alone or in the presence different doses of each derivative (1-10 μM) for 24 hr. Fisetin was used as a positive control. TEAC values, a measure of direct antioxidant activity, were determined using the ABTS decolorization assay.
For rapid screening of chemical libraries, a mouse HT22 hippocampal cell death assay induced by addition of the compound iodoacetic acid (IAA) was used. IAA is a well-known, irreversible inhibitor of the glycolytic enzyme glyceraldehyde 3-phosphate dehydrogenase (G3PDH). […]

HT22 cells [2] = test: Maintenance of total GSH in the presence of glutamate; type: cell-based, mouse; conditions: derivative 1-10 μM, 5 mM glutamate, 24 hr
Method: Total intracellular glutathione was determined by a chemical assay as described (Maher, P. et al., Free Radical Research. (2006) 40 (10), 1105-1111).
(§2) Three secondary screens allowed assessment of three key activities of Fisetin that are highly relevant to stroke, as well as other neurological disorders: maintenance of glutathione (GSH), the major endogenous cellular antioxidant, inhibition of LPS-induced microglial activation, an indicator of anti-inflammatory activity and PC 12 cell differentiation, a measure of neurotrophic activity. All of these activities are relevant to the nerve cell loss seen in stroke (Gelderblom, et al., Stroke. 2009, 40 (5), 1849-1857; Pandya, et al., Cent. Nerv. Syst. Agents. Med. Chem. (2011) April 27; Lewerenz, et al., J. Neurochem. (2010) 113 (2), 502-504). […] To assess GSH maintenance, total intracellular GSH levels after a 24 hr treatment with the compound both in the absence and presence of glutamate, an inducer of GSH loss and oxidative stress (Tan, et al., Curr. Top. Med. Chem. (2001) 1, 497-506; Maher, et al., Free Radical Research. (2006) 40 (10), 1105-1111) was measured. Inhibition of LPS-induced microglial activation was determined by treating N9 mouse microglial cells with LPS alone and in the presence of the compounds and assaying NO release into the medium 24 hr later (Zheng, et al., Int. Immunopharmacol. (2008) 8, (3), 484-494). PC12 cell differentiation was determined by treating PC12 cells with the compounds and looking at neurite outgrowth after 24 hr. In all cases, Fisetin was used as a positive control (Sagara, et al., J. Neurochem. (2004) 90, 1144-1155).
as §1

[3] = TEAC, ABTS decolorization assay; conditions: relative to Trolox
Method: TEAC values for the flavonoids were determined as described (Maher, P. et al., Free Radical Research. (2006), supra). Briefly, 250 μl of 2,2′-azinobis(3-ethylbenzothiazoline 6-sulfonate) (ABTS) treated overnight with potassium persulfate and diluted to an OD of ˜0.7 at 734 nm was added to 2.5 μl of a derivative solution in ethanol. The change in absorbance due to the reduction of the ABTS radical cation was measured at 734 nm for 4 min. To calculate the TEAC, the gradient of the plot of the percentage inhibition of absorbance vs. concentration for the derivative in question was divided by the gradient of the plot for Trolox.
as §1

PC12 cells = test: PC12 cell differentiation (neurite outgrowth); type: cell-based; conditions: N2 medium, derivative 1-10 μM, 24 hr, visual inspection
Method: PC 12 cells in N2 medium were treated with the derivatives (1-10 μM) or Fisetin (10 μM) as a positive control for 24 hr at which time the cells were scored for the presence of neurites. PC12 cells produce neurites much more rapidly when treated in N2 medium than when treated in regular growth medium. For each treatment, 100 cells in each of three separate fields were counted. Cells were scored positive if one or more neurites>1 cell body diameter in length were observed.
as §2, §1

[4] = Mus musculus, HT-22, HT22 cells, 20 μM IAA for 2 hr, viability after 24 hr by MTT, read-out: EC50 in vitro ischemia
[5] = Mus musculus, HT-22, HT22 cells, 20 μM IAA, read-out: HT22 Cell IAA assay EC50
[6] = HT22 cells, 20 μM IAA for 2 hr, viability after 24 hr by MTT

Row | Compound | pEC50 (HT22 cells [1]; [4]) | pEC50 (HT22 cells [1]; [5]) | GSH (ability to maintain GSH) (HT22 cells [2]) | TEAC [3] | PC12 diff'n (ability to induce PC12 cell differentiation) (PC12 cells) | EC50 in vitro ischemia (μM) (HT22 cells [1]; [6]) | Emax (HT22 cells [1]; Mus musculus) | pEC50 (HT22 cells [1]; HT22 cells, 20 μM IAA, read-out: HT22 Cell IAA assay EC50)
1 | CC(C)Oc1cc(-c2ccc(O)cc2O)nc2ccccc12 [CMS-084, 4-isopropoxy-2-(2,4-dihydroxyphenyl) quinoline] | 6.68 | 6.68 | no | 0.27 | no |  |  | 
2 | CCOc1ccc(/C=C/C(=O)c2cc(C)c(C)cc2O)cc1OCC [CMS-013, (E)-3-(3,4-diethoxyphenyl)-1-(2-hydroxy-4,5-dimethylphenyl)prop-2-en-1-one] |  |  | no | 0.09 | no | no |  | 
3 | COc1ccc(-c2oc3cc(C)c(C)cc3c(=O)c2O)cc1O [CMS-092, 3-hydroxy-2-(3-hydroxy-4-methoxyphenyl)-6,7-dimethyl-4H-chromen-4-one] | 7.70 |  | no | 1.74 | no |  | 90% | 
4 | COc1cc(-c2cc(=O)c3cc(C)c(C)cc3o2)ccc1O [CMS-064, 2-(4-hydroxy-3-methoxyphenyl)-6,7-dimethyl-4H-chromen-4-one] | 7.52 | > 7.40 | no | 0.12 | no |  |  | 7.47
5 | CCOc1ccc(/C=C/C(=O)c2ccc3ccccc3c2O)cc1OCC [CMS-032, (E)-3-(3,4-diethoxyphenyl)-1-(1-hydroxynaphthalen-2-yl)prop-2-en-1-one] |  |  | no | 0.12 | no | no |  | 
6 | CCOc1ccc(-c2cc(=O)c3ccc4ccccc4c3o2)cc1OCC [CMS-038, 2-(3,4-diethoxyphenyl)-4H-benzo[h]chromen-4-one] |  |  | no | 0.2 | no | no |  | 
7 | COc1cc(-c2ccc(N3CCCC3)cc2)nc2ccccc12 [CMS-110, 4-methoxy-2-(4-(pyrrolidin-1-yl)phenyl)quinoline] |  |  | no | 0.27 | no | no |  | 
8 | COc1ccc(-c2cc(OC)c3ccccc3n2)cc1O [CMS-001, 4-methoxy-2-(3-hydroxy, 4-methoxyphenyl) quinoline] |  |  | no | 0.24 | no | no |  | 
9 | Cc1cc2oc(-c3ccc(N4CCCC4)cc3)cc(=O)c2cc1C [CMS-116, 6,7-dimethyl-2-(4-(pyrrolidin-1-yl)phenyl)-4H-chromen-4-one] | < 6.30 |  | no | 0.12 | no |  |  | 
10 | Cc1cc2oc(-c3ccc(N(C)C)cc3)cc(=O)c2cc1C [CMS-119, 2-(4-(dimethylamino)phenyl)-6,7-dimethyl-4H-chromen-4-one] | < 6.30 |  | no | 0 | no |  |  | 
11 | O=c1c(O)c(-c2ccc(N3CCCC3)cc2)oc2c1ccc1ccccc12 [CMS-114, 3-hydroxy-2-(4-(pyrrolidin-1-yl)phenyl)-4H-benzo[h]chromen-4-one] | 7.15 | 7.15 | no | 1.44 | yes |  | 74% | 
12 | CC(C)Oc1cc(-c2ccc(N3CCCC3)cc2)nc2ccccc12 [CMS-113, 4-isopropoxy-2-(4-(pyrrolidin-1-yl)phenyl)quinoline] | 6.30 |  | no | 0.27 | no |  |  | 
13 | COc1cc(/C=C/C(=O)c2ccc3ccccc3c2O)ccc1OCc1ccccc1 [CMS-063, (E)-3-(4-(benzyloxy)-3-methoxyphenyl)-1-(1-hydroxynaphthalen-2-yl)prop-2-en-1-one] | 6.30 |  | no | 0.15 | no |  |  | 
14 | CCOc1ccc(-c2cc(=O)c3cc(C)c(C)cc3o2)cc1OCC [CMS-018, 2-(3,4-diethoxyphenyl)-6,7-dimethyl-4H-chromen-4-one] |  |  | no | 0.15 | no | no |  | 
